From patent publication US12291501B2 (University of Florida Research Foundation, Inc., priority 2021, dated 2025)
Where “and” joins values, the source holds several entries; their conditions need not be identical. Equal entries are not always repeated. Entries after “also recorded” stand apart in the source; their conditions may differ.

Columns and labels:
Format in all cases: cell-based
α9 nAChR = biological target: T1, α9 nAChR (Homo sapiens, UniProt Q9UGM1); test: Two-electrode voltage-clamp, agonist concentration-response, α9 nAChR in Xenopus oocytes; conditions: for α9 Imax: relative to ACh (Imax = 1)
T1 construct: expressed in transfected cells; host or cells: Xenopus laevis oocytes, injected with in vitro transcribed RNA
Source text: (§1) Electrophysiology: Xenopus oocytes were microinjected with RNAs to produce functional nAChR which were characterized by two-electrode voltage-clamp measurements. FIGS. 5A-7D present concentration-response curves for the new compounds evaluated with α7, α9, and α9α10 receptors. Table 1 presents the values for Imax and EC50 with these receptors and Table 2 summarizes inhibition data for the compounds with heteromeric nAChR.
(§2) Molecular Biology: Plasmid DNAs encoding the human α7 and heteromeric nAChR were obtained from Jon Lindstrom (University of Pennsylvania, Philadelphia, PA). Mouse muscle subunit clones were obtained from Jim Boulter (Salk Institute, La Jolla CA) and Paul Gardner (Dartmouth, Hanover NH). The human resistance-to-cholinesterase 3 ([…]) clone was obtained from Millet Treinin (Hebrew University, Jerusalem, Israel) and RNA co-injected with α7 to improve the level and speed of receptor expression without affecting their pharmacological properties. Plasmid DNA encoding the human α10 nAChR was obtained from J. Michael McIntosh. Plasmid DNA encoding the human α9 nAChR and the human receptor-associated protein of the synapse (RAPSYN) with codon optimization for expression in Xenopus laevis were obtained from Katrin Richter. RAPSYN RNA was co-injected with the α9 and α10 to improve expression (Richter et al., (2022) Front. Cell Neurosci. 16: 779081). After linearization and purification of the plasmid DNAs, RNAs were prepared using the mMessage mMachine in vitro RNA transcription kit (Ambion, Austin, TX). Frogs were maintained in the Animal Care Service facility of the University of Florida, and all procedures were approved by the University of Florida Institutional Animal Care and Use Committee (approval number 202002669). In brief, the animals were first anesthetized for 15-20 min in 1.5 l frog tank water containing 1 g of MS-222 buffered with sodium bicarbonate. Oocytes were obtained surgically from mature female Xenopus laevis (Nasco, Ft. Atkinson WI, USA) and treated with 1.4 mg/ml type 1 collagenase (Worthington Biochemicals, Freehold NJ, USA) for 2-4 h at rt in Ca2+-free Barth's solution (88 mM NaCl, 1 mM KCl, 2.38 mM NaHCO3, 0.82 mM MgSO4, 15 mM HEPES, and 12 mg/l tetracycline, pH 7.6) to remove the ovarian tissue and the follicular layers. Stage V oocytes were injected with 4-6 ng CHRNA7 RNA and 2-3 ng RIC3 RNA (2:1 ratio) in 50 nl water, or with 12 ng CHRNA9 RNA and 3 ng RAPSN RNA, or along with 12 ng CHRNA10 RNA in 50 nl water. Oocytes were maintained in Barth's solution containing 0.32 mM Ca(NO3)2 and 0.41 mM CaCl2, and recordings were conducted 2-20 days after injection.
(§3) Electrophysiology: Two-electrode voltage-clamp experiments were conducted using OpusXpress 6000A (Molecular Devices, Union City CA, USA). Both the voltage and current electrodes were filled with 3 M KCl. Oocytes were voltage-clamped at −60 mV at rt. The oocytes were perfused with Ringer's solution (115 mM NaCl, 2.5 mM KCl, 1.8 mM CaCl2, 10 mM HEPES, 1 μM atropine, pH 7.2) at 2 ml/min. […] Drug applications were 12 s in duration followed by 181 s washout periods.
(§4) The responses were calculated as both peak-current amplitudes and net charge. Data were collected at 50 Hz, filtered at 20 Hz, and analyzed by Clampfit (Molecular Devices) and Excel (Microsoft, Redmond, WA, United States). Data are expressed as means±SEM from at least five oocytes for each experiment and plotted with Kaleidagraph 4.5.2 (Abelbeck Software, Reading, PA, United States). Each episode of data acquisition was a total of 210 s and included an initial 30 s period used to define the baseline for the drug-evoked responses. After 30 s, drugs were applied, and the following 120 s were defined as the drug response period for analysis. […] The values for the curve fits were generated using the Levenberg-Marquardt algorithm to obtain the best Chi-Square fit to the Hill equation using the Kaleidagraph 4.5.2 plotting program. […]

α9α10 nAChR = biological target: T2, α9α10 nAChR (Homo sapiens, UniProt Q9GZZ6+Q9UGM1); test: Two-electrode voltage-clamp, agonist concentration-response, α9α10 nAChR in Xenopus oocytes; conditions: for α9α10 Imax: relative to ACh (Imax = 1)
T2 construct: expressed in transfected cells; host or cells: Xenopus laevis oocytes, injected with in vitro transcribed RNA
Source text: as §1, §2, §3, §4

α7 nAChR [1] = biological target: T3, α7 nAChR (Homo sapiens, UniProt P36544); test: Two-electrode voltage-clamp, agonist concentration-response, α7 nAChR in Xenopus oocytes; conditions: for EC50 / α7 Imax: net charge, ± standard error of fit; for α7 Imax: relative to ACh (Imax = 1)
T3 construct: expressed in transfected cells; host or cells: Xenopus laevis oocytes, injected with in vitro transcribed RNA
Source text: as §1
(§5) Molecular Biology: Plasmid DNAs encoding the human α7 and heteromeric nAChR were obtained from Jon Lindstrom (University of Pennsylvania, Philadelphia, PA). Mouse muscle subunit clones were obtained from Jim Boulter (Salk Institute, La Jolla CA) and Paul Gardner (Dartmouth, Hanover NH). […] Plasmid DNA encoding the human α10 nAChR was obtained from J. Michael McIntosh. Plasmid DNA encoding the human α9 nAChR and the human receptor-associated protein of the synapse (RAPSYN) with codon optimization for expression in Xenopus laevis were obtained from Katrin Richter. […] After linearization and purification of the plasmid DNAs, RNAs were prepared using the mMessage mMachine in vitro RNA transcription kit (Ambion, Austin, TX). […] Oocytes were maintained in Barth's solution containing 0.32 mM Ca(NO3)2 and 0.41 mM CaCl2, and recordings were conducted 2-20 days after injection.
(§6) Electrophysiology: Two-electrode voltage-clamp experiments were conducted using OpusXpress 6000A (Molecular Devices, Union City CA, USA). Both the voltage and current electrodes were filled with 3 M KCl. Oocytes were voltage-clamped at −60 mV at rt.
(§7) The responses were calculated as both peak-current amplitudes and net charge. Data were collected at 50 Hz, filtered at 20 Hz, and analyzed by Clampfit (Molecular Devices) and Excel (Microsoft, Redmond, WA, United States). Data are expressed as means±SEM from at least five oocytes for each experiment and plotted with Kaleidagraph 4.5.2 (Abelbeck Software, Reading, PA, United States). Each episode of data acquisition was a total of 210 s and included an initial 30 s period used to define the baseline for the drug-evoked responses. After 30 s, drugs were applied, and the following 120 s were defined as the drug response period for analysis. […] The values for the curve fits were generated using the Levenberg-Marquardt algorithm to obtain the best Chi-Square fit to the Hill equation using the Kaleidagraph 4.5.2 plotting program. The errors in the tables are the calculated standard errors of the fit parameters based on the goodness of fit.

α7 nAChR [2] = biological target: T3, α7 nAChR; test: α7 responses to drugs co-applied with the PAM PNU-120596 (silent agonism); conditions: for Response co-applied with PNU-120596, normalized to ACh co-applied with PNU-120596: drug 30 μM + 10 μM PNU-120596, normalized to 30 μM ACh + 10 μM PNU-120596
Source text: as §5, §6, §7

α3β4 nAChR = biological target: T4, α3β4 nAChR (Homo sapiens, UniProt P30926+P32297); test: Inhibition of control ACh responses by co-application, α3β4 nAChR in oocytes; conditions: 3 μM compound co-applied with ACh; fraction of control ACh response
T4 construct: expressed in transfected cells; host or cells: Xenopus laevis oocytes
Method: (§8) Initial profiling against heteromeric receptors: The test compounds for their ability to activate or inhibit other nAChR subtypes were evaluated. Agonist activity was evaluated by applying the compounds at 100 or 30 μM to human α4β2 and α3β4 as well as to mouse muscle α1β1εδ nAChR expressed in Xenopus oocytes. […] The inhibitory activity was generally low (Table 3).
as §2, §3, §7

α4β2 nAChR = biological target: T5, α4β2 nAChR (Homo sapiens, UniProt P17787+P43681); test: Inhibition of control ACh responses by co-application, α4β2 nAChR in oocytes; conditions: 3 μM compound co-applied with ACh; fraction of control ACh response
T5 construct: expressed in transfected cells; host or cells: Xenopus laevis oocytes
Method: as §8, §2, §3, §7

α1β1εδ nAChR = biological target: T6, α1β1εδ nAChR (Mus musculus, UniProt P02716+P04756+P09690+P20782); test: Inhibition of control ACh responses by co-application, muscle α1β1εδ nAChR in oocytes; conditions: 3 μM compound co-applied with ACh; fraction of control ACh response
T6 construct: expressed in transfected cells; host or cells: Xenopus laevis oocytes
Method: as §8, §2, §3, §7

[3] = peak currents, ± standard error of fit
[4] = 3e vs larger ammonium analogs, 3h relative to 3g

T2 sequence (Q9UGM1 26-479 limits assumed): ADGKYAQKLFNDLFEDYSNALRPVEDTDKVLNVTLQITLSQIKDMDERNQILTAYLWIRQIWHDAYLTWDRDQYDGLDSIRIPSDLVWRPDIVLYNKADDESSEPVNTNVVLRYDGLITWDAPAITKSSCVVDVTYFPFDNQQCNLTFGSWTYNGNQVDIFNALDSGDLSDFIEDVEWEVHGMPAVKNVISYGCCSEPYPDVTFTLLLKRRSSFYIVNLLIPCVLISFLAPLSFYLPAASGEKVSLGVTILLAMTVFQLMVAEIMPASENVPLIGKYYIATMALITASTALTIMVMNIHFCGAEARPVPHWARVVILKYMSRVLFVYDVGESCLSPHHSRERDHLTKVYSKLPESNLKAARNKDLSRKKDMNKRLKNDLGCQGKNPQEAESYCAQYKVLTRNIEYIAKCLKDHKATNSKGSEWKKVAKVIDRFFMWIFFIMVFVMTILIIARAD
T2 sequence (Q9GZZ6 25-450): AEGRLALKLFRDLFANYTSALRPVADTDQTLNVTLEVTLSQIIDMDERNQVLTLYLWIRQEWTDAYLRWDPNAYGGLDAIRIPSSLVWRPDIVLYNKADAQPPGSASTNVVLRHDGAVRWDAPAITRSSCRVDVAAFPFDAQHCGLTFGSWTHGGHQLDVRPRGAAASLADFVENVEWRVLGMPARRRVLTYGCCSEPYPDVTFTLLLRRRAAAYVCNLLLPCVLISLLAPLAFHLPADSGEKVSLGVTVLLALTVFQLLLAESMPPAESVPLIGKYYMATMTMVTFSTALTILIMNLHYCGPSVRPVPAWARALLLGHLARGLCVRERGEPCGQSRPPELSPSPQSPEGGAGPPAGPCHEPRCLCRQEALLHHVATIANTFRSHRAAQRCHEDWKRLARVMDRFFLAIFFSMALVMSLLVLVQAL
T1 sequence (Q9UGM1 26-479 limits assumed): as the sequence (Q9UGM1 26-479 limits assumed) above
T3 sequence (P36544 23-502): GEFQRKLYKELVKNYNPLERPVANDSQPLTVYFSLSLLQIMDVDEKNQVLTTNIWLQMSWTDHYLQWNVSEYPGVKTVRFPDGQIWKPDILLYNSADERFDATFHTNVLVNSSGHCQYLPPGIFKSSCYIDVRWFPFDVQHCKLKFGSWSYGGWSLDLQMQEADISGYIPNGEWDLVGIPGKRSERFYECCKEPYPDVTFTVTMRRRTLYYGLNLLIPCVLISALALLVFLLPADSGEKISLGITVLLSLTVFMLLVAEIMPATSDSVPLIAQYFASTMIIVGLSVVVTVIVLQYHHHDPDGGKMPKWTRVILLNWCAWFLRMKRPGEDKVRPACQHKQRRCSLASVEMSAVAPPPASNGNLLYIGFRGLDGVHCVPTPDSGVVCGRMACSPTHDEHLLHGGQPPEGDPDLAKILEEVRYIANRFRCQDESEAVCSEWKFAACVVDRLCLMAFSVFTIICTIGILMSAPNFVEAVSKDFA
T4 sequence (P32297 32-505): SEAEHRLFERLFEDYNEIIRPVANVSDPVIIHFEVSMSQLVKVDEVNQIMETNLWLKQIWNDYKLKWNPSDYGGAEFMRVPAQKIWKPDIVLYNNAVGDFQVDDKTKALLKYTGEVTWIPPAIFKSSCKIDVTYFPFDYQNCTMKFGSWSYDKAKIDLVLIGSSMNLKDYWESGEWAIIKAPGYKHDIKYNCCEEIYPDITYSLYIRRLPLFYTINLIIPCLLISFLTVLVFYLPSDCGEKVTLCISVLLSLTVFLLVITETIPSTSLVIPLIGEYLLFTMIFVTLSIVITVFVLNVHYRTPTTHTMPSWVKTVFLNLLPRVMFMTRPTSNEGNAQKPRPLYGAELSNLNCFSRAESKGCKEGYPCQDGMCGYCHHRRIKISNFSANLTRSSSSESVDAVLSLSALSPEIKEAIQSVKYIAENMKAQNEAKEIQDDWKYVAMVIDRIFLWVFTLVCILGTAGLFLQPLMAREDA
T4 sequence (P30926 22-498): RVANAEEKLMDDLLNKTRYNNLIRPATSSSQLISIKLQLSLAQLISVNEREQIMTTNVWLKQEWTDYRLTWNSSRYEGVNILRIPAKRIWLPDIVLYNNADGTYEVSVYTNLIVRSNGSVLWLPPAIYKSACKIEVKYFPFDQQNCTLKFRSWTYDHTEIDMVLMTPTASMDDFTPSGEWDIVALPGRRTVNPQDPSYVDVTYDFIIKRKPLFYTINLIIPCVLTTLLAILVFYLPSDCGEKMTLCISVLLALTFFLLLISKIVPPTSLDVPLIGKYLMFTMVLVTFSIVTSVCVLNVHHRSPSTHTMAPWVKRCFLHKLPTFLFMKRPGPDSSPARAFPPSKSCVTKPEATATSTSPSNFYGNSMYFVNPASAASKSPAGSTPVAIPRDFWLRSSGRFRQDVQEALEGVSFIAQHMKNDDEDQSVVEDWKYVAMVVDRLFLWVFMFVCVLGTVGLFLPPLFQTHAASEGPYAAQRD
T5 sequence (P43681 29-627 limits assumed): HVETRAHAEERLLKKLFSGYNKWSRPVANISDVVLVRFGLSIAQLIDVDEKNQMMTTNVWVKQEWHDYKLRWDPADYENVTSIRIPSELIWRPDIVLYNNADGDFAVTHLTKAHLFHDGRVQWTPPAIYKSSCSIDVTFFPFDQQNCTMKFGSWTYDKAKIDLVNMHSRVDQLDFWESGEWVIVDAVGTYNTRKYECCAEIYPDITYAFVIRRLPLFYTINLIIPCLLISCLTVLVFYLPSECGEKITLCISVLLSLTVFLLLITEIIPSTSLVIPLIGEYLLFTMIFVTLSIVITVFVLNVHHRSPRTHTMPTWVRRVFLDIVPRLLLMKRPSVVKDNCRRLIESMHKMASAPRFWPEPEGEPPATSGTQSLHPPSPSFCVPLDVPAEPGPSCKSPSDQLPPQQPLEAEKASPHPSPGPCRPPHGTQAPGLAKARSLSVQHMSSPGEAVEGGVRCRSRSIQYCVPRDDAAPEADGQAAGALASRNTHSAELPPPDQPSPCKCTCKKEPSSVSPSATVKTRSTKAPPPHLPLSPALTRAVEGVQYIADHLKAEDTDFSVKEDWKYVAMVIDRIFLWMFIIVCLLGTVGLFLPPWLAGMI
T5 sequence (P17787 26-502): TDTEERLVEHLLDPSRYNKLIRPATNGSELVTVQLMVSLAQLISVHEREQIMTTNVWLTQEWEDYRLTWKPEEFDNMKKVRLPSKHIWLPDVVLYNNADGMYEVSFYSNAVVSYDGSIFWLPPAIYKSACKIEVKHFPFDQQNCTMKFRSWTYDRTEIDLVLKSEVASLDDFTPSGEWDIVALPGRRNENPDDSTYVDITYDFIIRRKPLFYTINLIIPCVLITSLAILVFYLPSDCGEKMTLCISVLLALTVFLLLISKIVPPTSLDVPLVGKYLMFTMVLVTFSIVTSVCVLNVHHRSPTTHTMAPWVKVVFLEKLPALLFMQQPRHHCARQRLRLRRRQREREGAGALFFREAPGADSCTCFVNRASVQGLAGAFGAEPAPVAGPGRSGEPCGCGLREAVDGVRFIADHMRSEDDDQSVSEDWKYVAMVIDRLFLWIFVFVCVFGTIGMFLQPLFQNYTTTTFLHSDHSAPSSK

SMILES	EC50 (α9 nAChR; [3]) [nM]	α9 Imax (α9 nAChR; [3])	Agonist character / efficacy at α9α10 (α9α10 nAChR)	EC50 (α9α10 nAChR; [3]) [nM]	α9α10 Imax (α9α10 nAChR; [3])	Agonist character / efficacy at α7 (α7 nAChR [1])	EC50 (α7 nAChR [1]) [nM]	α7 Imax (α7 nAChR [1])	Response co-applied with PNU-120596, normalized to ACh co-applied with PNU-120596 (α7 nAChR [2])	Effect of co-application on the control ACh responses, α3β4 (α3β4 nAChR)	Effect of co-application on the control ACh responses, α4β2 (α4β2 nAChR)	Effect of co-application on the control ACh responses, α1β1εδ (α1β1εδ nAChR)	Agonist character / efficacy at α9 (α9 nAChR)	further results
CC[N+]1(CC)CCN(c2ccc(C(=O)Nc3ccccn3)cc2)CC1.[I-] [Compound 3c, 1,1-diethyl-4-(4-(pyridin-2-ylcarbamoyl)phenyl)piperazin-1-ium iodide]	18000 ± 36000	1.18 ± 0.39	efficacious agonist	1180 ± 260	0.94 ± 0.04	partial agonists	26000 ± 20000	0.46 ± 0.08 and 0.46	0.12	0.789 ± 0.057	0.697 ± 0.027	0.506 ± 0.082		Fold better potency for α9α10 relative to α9 homomers (α9α10 nAChR; ratio of EC50 values): 10 fold
CC[N+]1(CC)CCN(c2ccc(-c3ncco3)cc2)CC1.[I-] [Compound 3g, 1,1-diethyl-4-(4-(oxazol-2-yl)phenyl)piperazin-1-ium iodide]	380 ± 170	1.29±0.13	strong partial agonist	700 ± 30	0.83±0.01	strongly diminished activity; also recorded: very weak partial agonists	1700 ± 400	0.12 ± 0.01 and 0.12	0.05	0.507 ± 0.032	0.823 ± 0.043	0.353 ± 0.071	full agonism; also recorded: full agonist	α9 EC50 (α9 nAChR; [3]): submicromolar potency; α9α10 EC50 (α9α10 nAChR; [3]): submicromolar potency
CC[N+]1(CC)CCN(c2ccc(-n3cccn3)cc2)CC1.[I-] [Compound 3h, 4-(4-(1H-pyrazol-1-yl)phenyl)-1,1-diethylpiperazin-1-ium iodide]	1490 ± 240	1.01 ± 0.04	partial agonist	2000 ± 800	0.59 ± 0.05	very weak partial agonists	18000 ± 600	0.088 ± 0.001 and 0.088	0.17	0.736 ± 0.034	0.913 ± 0.026	0.590 ± 0.062	full agonist	Fold loss of potency at α9 relative to comparator compound (α9 nAChR; [4]): 3 fold; Fold loss of potency at α9α10 relative to comparator compound (α9α10 nAChR; [4]): 3 fold; Fold loss of potency at α7 relative to comparator compound (α7 nAChR [1]; 3h compared with 3g): 10 fold; Response co-applied with PNU-120596 relative to the ACh controls (α7 nAChR [2]; 30 μM compound + 10 μM PNU-120596, relative to ACh alone controls): approximately 4 times
CC[N+]1(CC)CCN(c2ccc(C(N)=O)cc2)CC1 [Compound 1, 4-(4-carbamoylphenyI)-1,1-diethylpiperazin-1-ium iodide, reference compound]	1150 ± 240	0.80 ± 0.03		13000 ± 11000	1.19 ± 0.25		76000 ± 2000	0.34 ± 0.01 and 0.34	0.18				full α9 agonist	Fold greater potency for α9 than for α7 (α9 nAChR; ratio of EC50 values): 66 fold
